Assay results: PubChem BioAssay (NCI)
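These data come from cells grown in 96-well plates and exposed to compound for 48 hours at five concentrations. GI50: concentration for 50% inhibition of growth. The concentration for full growth arrest is given as TGI.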

Tests used:
Assay in all cases: inhibition of tumour cell growth, NCI panel, 48 h
[1] = tested on: U251 CNS
[2] = tested on: 786-0 renal
[3] = tested on: KM12 colon
[4] = tested on: TK-10 renal
[5] = tested on: A498 renal
[6] = tested on: COLO 205 colon
[7] = tested on: SF-295 CNS
[8] = tested on: OVCAR-3 ovarian
[9] = tested on: SNB-19 CNS
[10] = tested on: OVCAR-5 ovarian
[11] = tested on: LOX IMVI melanoma
[12] = tested on: SW-620 colon
[13] = tested on: OVCAR-8 ovarian
[14] = tested on: A549 NSCLC
[15] = tested on: UACC-62 melanoma
[16] = tested on: HOP-92 NSCLC
[17] = tested on: CAKI-1 renal
[18] = tested on: NCI-H23 lung
[19] = tested on: SK-MEL-28 melanoma
[20] = tested on: PC-3 prostate
[21] = tested on: T-47D breast
[22] = tested on: RXF 393 renal
[23] = tested on: SNB-75 CNS
[24] = tested on: OVCAR-4 ovarian
[25] = tested on: HCC-2998 colon
[26] = tested on: MOLT-4 leukemia
[27] = tested on: RPMI-8226 leukemia
[28] = tested on: SN12C renal
[29] = tested on: HCT-15 colon
[30] = tested on: HCT-116 colon
[31] = tested on: MCF7 breast
[32] = tested on: NCI-H522 lung
[33] = tested on: NCI-H460 lung
[34] = tested on: MDA-MB-435
[35] = tested on: SK-MEL-5 melanoma
[36] = tested on: UO-31 renal
[37] = tested on: NCI/ADR-RES ovarian
[38] = tested on: SK-OV-3 ovarian
[39] = tested on: HS 578T breast
[40] = tested on: M14 melanoma
[41] = tested on: NCI-H226 lung
[42] = tested on: MDA-MB-231 breast
[43] = tested on: BT-549 breast
[44] = tested on: UACC-257 melanoma
[45] = tested on: ACHN renal
[46] = tested on: SF-268 CNS
[47] = tested on: EKVX NSCLC
[48] = tested on: IGROV1 ovarian
[49] = tested on: SF-539 CNS
[50] = tested on: MDA-N
[51] = tested on: HOP-62 NSCLC
[52] = tested on: HT29 colon
[53] = tested on: SK-MEL-2 melanoma
[54] = tested on: DU-145 prostate
[55] = tested on: K-562 leukemia
[56] = tested on: HL-60(TB) leukemia
[57] = tested on: SR leukemia
[58] = tested on: MALME-3M melanoma

## CCNc1cc2oc(=O)cc(C(F)(F)F)c2cc1C
[1]
  TGI: > 100 µM
[2]
  TGI: > 100 µM
[3]
  TGI: > 100 µM
[4]
  TGI: > 100 µM
[5]
  TGI: > 100 µM
[6]
  TGI: > 100 µM
[7]
  TGI: > 100 µM
[8]
  TGI: > 100 µM
[9]
  TGI: > 100 µM
[10]
  TGI: > 100 µM
[11]
  TGI: > 100 µM
[12]
  TGI: > 100 µM
[13]
  TGI: > 100 µM
[14]
  TGI: > 100 µM
[15]
  TGI: > 100 µM
[16]
  TGI: > 100 µM
[17]
  TGI: > 100 µM
[18]
  TGI: > 100 µM
[19]
  TGI: > 100 µM
[20]
  TGI: > 100 µM
[21]
  TGI: > 100 µM
[22]
  TGI: > 100 µM
[23]
  TGI: > 100 µM
[24]
  TGI: > 100 µM
[25]
  TGI: > 100 µM
[26]
  TGI: > 100 µM
[27]
  TGI: > 100 µM
[28]
  TGI: > 100 µM
[29]
  TGI: > 100 µM
[30]
  TGI: > 100 µM
[31]
  TGI: > 100 µM
[32]
  TGI: > 100 µM
[33]
  TGI: > 100 µM
[34]
  TGI: > 100 µM
[35]
  TGI: > 100 µM
[36]
  TGI: > 100 µM
[37]
  TGI: > 100 µM
[38]
  TGI: > 100 µM
[39]
  TGI: > 100 µM
[40]
  TGI: > 100 µM
[41]
  TGI: > 100 µM
[42]
  TGI: > 100 µM
[43]
  TGI: > 100 µM
[44]
  TGI: > 100 µM
[45]
  TGI: > 100 µM
[46]
  TGI: > 100 µM
[47]
  TGI: > 100 µM
[48]
  TGI: > 100 µM
[49]
  TGI: > 100 µM
[50]
  TGI: > 100 µM
[51]
  TGI: > 100 µM
[52]
  TGI: > 100 µM
[53]
  TGI: > 100 µM
[54]
  TGI: > 100 µM
[55]
  TGI: > 100 µM

## O=C(O)/C=C/c1ccc[c]([Sb](=[O])([OH])[OH])c1
[56]
  GI50: > 100 µM
  TGI: > 100 µM
[1]
  GI50: > 100 µM
  TGI: > 100 µM
[2]
  GI50: > 100 µM
  TGI: > 100 µM
[3]
  GI50: > 100 µM
  TGI: > 100 µM
[4]
  GI50: > 100 µM
  TGI: > 100 µM
[5]
  GI50: > 100 µM
  TGI: > 100 µM
[7]
  GI50: > 100 µM
  TGI: > 100 µM
[8]
  GI50: > 100 µM
  TGI: > 100 µM
[9]
  GI50: > 100 µM
  TGI: > 100 µM
[10]
  GI50: > 100 µM
  TGI: > 100 µM
[11]
  GI50: > 100 µM
  TGI: > 100 µM
[12]
  GI50: > 100 µM
  TGI: > 100 µM
[13]
  GI50: > 100 µM
  TGI: > 100 µM
[14]
  GI50: > 100 µM
  TGI: > 100 µM
[15]
  GI50: > 100 µM
  TGI: > 100 µM
[57]
  GI50: > 100 µM
  TGI: > 100 µM
[16]
  GI50: > 100 µM
  TGI: > 100 µM
[17]
  GI50: > 100 µM
  TGI: > 100 µM
[18]
  GI50: > 100 µM
  TGI: > 100 µM
[19]
  GI50: > 100 µM
  TGI: > 100 µM
[20]
  GI50: > 100 µM
  TGI: > 100 µM
[21]
  GI50: > 100 µM
  TGI: > 100 µM
[22]
  GI50: > 100 µM
  TGI: > 100 µM
[24]
  GI50: > 100 µM
  TGI: > 100 µM
[25]
  GI50: > 100 µM
  TGI: > 100 µM
[26]
  GI50: > 100 µM
  TGI: > 100 µM
[27]
  GI50: > 100 µM
  TGI: > 100 µM
[28]
  GI50: > 100 µM
  TGI: > 100 µM
[29]
  GI50: > 100 µM
  TGI: > 100 µM
[30]
  GI50: > 100 µM
  TGI: > 100 µM
[32]
  GI50: > 100 µM
  TGI: > 100 µM
[33]
  GI50: > 100 µM
  TGI: > 100 µM
[34]
  GI50: > 100 µM
  TGI: > 100 µM
[35]
  GI50: > 100 µM
  TGI: > 100 µM
[36]
  GI50: > 100 µM
  TGI: > 100 µM
[37]
  GI50: > 100 µM
  TGI: > 100 µM
[39]
  GI50: > 100 µM
  TGI: > 100 µM
[40]
  GI50: > 100 µM
  TGI: > 100 µM
[41]
  GI50: > 100 µM
  TGI: > 100 µM
[42]
  GI50: > 100 µM
  TGI: > 100 µM
[43]
  GI50: > 100 µM
  TGI: > 100 µM
[44]
  GI50: > 100 µM
  TGI: > 100 µM
[45]
  GI50: > 100 µM
  TGI: > 100 µM
[46]
  GI50: > 100 µM
  TGI: > 100 µM
[58]
  GI50: > 100 µM
  TGI: > 100 µM
[47]
  GI50: > 100 µM
  TGI: > 100 µM
[48]
  GI50: > 100 µM
  TGI: > 100 µM
[50]
  GI50: > 100 µM
  TGI: > 100 µM
[51]
  GI50: > 100 µM
  TGI: > 100 µM
[52]
  GI50: > 100 µM
  TGI: > 100 µM
[53]
  GI50: > 100 µM
  TGI: > 100 µM
[54]
  GI50: > 100 µM
  TGI: > 100 µM
[55]
  GI50: > 100 µM
  TGI: > 100 µM

## Cc1nc(N)sc1C(=O)Nc1ncn[nH]1
[56]
  TGI: 49.9 µM
[1]
  TGI: > 100 µM
[2]
  TGI: > 100 µM
[3]
  TGI: > 100 µM
[4]
  TGI: > 100 µM
[6]
  TGI: > 100 µM
[7]
  TGI: > 100 µM
[8]
  TGI: > 100 µM
[9]
  TGI: > 100 µM
[10]
  TGI: > 100 µM
[11]
  TGI: > 100 µM
[12]
  TGI: > 100 µM
[13]
  TGI: > 100 µM
[14]
  TGI: > 100 µM
[15]
  TGI: > 100 µM
[57]
  TGI: 70 µM
[16]
  TGI: > 100 µM
[17]
  TGI: > 100 µM
[18]
  TGI: > 100 µM
[19]
  TGI: > 100 µM
[20]
  TGI: > 100 µM
[21]
  TGI: > 100 µM
[22]
  TGI: > 100 µM
[24]
  TGI: > 100 µM
[25]
  TGI: > 100 µM
[26]
  TGI: > 100 µM
[27]
  TGI: > 100 µM
[28]
  TGI: > 100 µM
[29]
  TGI: > 100 µM
[30]
  TGI: > 100 µM
[31]
  TGI: > 100 µM
[32]
  TGI: > 100 µM
[33]
  TGI: > 100 µM
[34]
  TGI: > 100 µM
[35]
  TGI: > 100 µM
[36]
  TGI: > 100 µM
[37]
  TGI: > 100 µM
[38]
  TGI: > 100 µM
[39]
  TGI: > 100 µM
[40]
  TGI: > 100 µM
[41]
  TGI: > 100 µM
[42]
  TGI: > 100 µM
[43]
  TGI: > 100 µM
[44]
  TGI: > 100 µM
[45]
  TGI: > 100 µM
[46]
  TGI: > 100 µM
[47]
  TGI: > 100 µM
[48]
  TGI: > 100 µM
[49]
  TGI: > 100 µM
[50]
  TGI: > 100 µM
[51]
  TGI: > 100 µM
[52]
  TGI: > 100 µM
[53]
  TGI: > 100 µM
[54]
  TGI: > 100 µM
[55]
  TGI: > 100 µM
